Assay [1] addresses T1, SFRP-1 (Homo sapiens, UniProt Q8N474).
T1 sequence (Q8N474 32-314): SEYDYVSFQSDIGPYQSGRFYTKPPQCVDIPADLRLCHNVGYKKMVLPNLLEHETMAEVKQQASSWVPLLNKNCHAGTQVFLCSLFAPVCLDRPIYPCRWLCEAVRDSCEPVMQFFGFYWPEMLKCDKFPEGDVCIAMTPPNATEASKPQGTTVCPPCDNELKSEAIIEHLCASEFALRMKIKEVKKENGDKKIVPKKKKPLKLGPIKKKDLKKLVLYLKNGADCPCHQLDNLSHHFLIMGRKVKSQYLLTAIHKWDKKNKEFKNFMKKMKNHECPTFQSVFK
Nature of the assay: Fluorescence polarization binding assay (competitive displacement of a probe compound from SFRP-1).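 Note: test compound competes with a fluorescent probe held by SFRP-1, seen as a drop in probe anisotropy after incubation in darkness, with anisotropy as function of rising compound dose.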 Particulars: fluorescence anisotropy, 45 nM SFRP-1, 20 nM probe. A general note: In fluorescence polarisation assays a small probe gives low polarisation when free and higher when bound to something large.

The target of assay [2] is T1, SFRP-1. Nature of the assay: Cell-based assay for in vitro measurement of SFRP-1/SARP2 antagonist activity (U2OS cells co-transfected with 16x TCF-tk-Luciferase reporter, Wnt and hSFRP-1).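 For all read-outs here: U2OS cells co-transfected with a TCF-tk luciferase reporter, a Wnt vector, hSFRP-1 or empty vector and CMV-βgal, luciferase luminescence read in cell lysates alongside βgal activity.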 Particulars: for fold induction at 10 µM: U2OS, read-out: Fold Induction with SFRP-1, U2OS cells, single dose 10 μM, luciferase reporter, fold induction over SFRP-1 control. Background: In a reporter assay the amount or activity of a reporter protein is the signal.

Where a name gives a salt, the structure may show the parent alone.

One may read the IC50 as the point on the concentration scale where inhibition reaches its midpoint. Regarding `O=S(=O)(NC1CCN(c2ccc(C(F)(F)F)cc2)CC1)c1cc(S(=O)(=O)c2ccccc2)ccc1C(F)(F)F` [Example 763, 5-(phenylsulfonyl)-2-(trifluoromethyl)-N-{1-[4-(trifluoromethyl)phenyl]piperidin-4-yl}benzenesulfonamide], on SFRP-1 [1], the 50% inhibitory concentration (IC50) was determined as 1700 nM. Also, the fold induction at 10 µM at SFRP-1 [2] is 2.7.
The EC50 is the concentration giving half of the maximal effect. Higher therefore signals lower potency in that assay. Regarding `CC(C)(C)c1ccc(C(=O)N2CCC(NS(=O)(=O)c3cc(S(=O)(=O)c4cccc(O)c4)ccc3C(F)(F)F)CC2)cc1` [Example 764, N-[1-(4-tert-butylbenzoyl)piperidin-4-yl]-5-[(3-hydroxyphenyl)sulfonyl]-2-(trifluoromethyl)benzenesulfonamide], on SFRP-1 [1], the IC50 is 270 nM. Moreover, on SFRP-1 [2], the EC50 was determined as 463 nM and the fold induction at 10 µM turned out to be 0.6.
Regarding `O=S(=O)(NCC1CCOCC1)c1cc(S(=O)(=O)c2ccccc2)ccc1C(F)(F)F` [Example 765, 5-(phenylsulfonyl)-N-(tetrahydro-2H-pyran-4-ylmethyl)-2-(trifluoromethyl)benzenesulfonamide], the IC50 on SFRP-1 [1] was found to be 190 nM. At SFRP-1 [2], a half-maximal response (EC50) required 754 nM and the fold induction at 10 µM is 3.7.
Take `O=S(=O)(NCCN1CCOCC1)c1cc(S(=O)(=O)c2ccccc2)ccc1C(F)(F)F` [Example 766, N-(2-morpholin-4-ylethyl)-5-(phenylsulfonyl)-2-(trifluoromethyl)benzenesulfonamide]: the IC50 on SFRP-1 [1] was determined as 400 nM. For the same compound, at SFRP-1 [2], the EC50 is 1220 nM and the fold induction at 10 µM was 2.7.
With `O=S(=O)(NCCCN1CCOCC1)c1cc(S(=O)(=O)c2ccccc2)ccc1C(F)(F)F` [Example 767, N-(3-morpholin-4-ylpropyl)-5-(phenylsulfonyl)-2-(trifluoromethyl)benzenesulfonamide], the IC50 on SFRP-1 [1] amounted to 900 nM. The fold induction at 10 µM on SFRP-1 [2] came out at 3.6.
For `COCCCNS(=O)(=O)c1cc(S(=O)(=O)c2ccccc2)ccc1C(F)(F)F` [Example 768, N-(3-methoxypropyl)-5-(phenylsulfonyl)-2-(trifluoromethyl)benzenesulfonamide], the half-maximal inhibitory concentration (IC50) on SFRP-1 [1] turned out to be 400 nM. Besides, on SFRP-1 [2], it took 1130 nM to reach a half-maximal effect (EC50) and the fold induction at 10 µM was determined as 3.4.
On SFRP-1 [1], `O=C(NCCNS(=O)(=O)c1cc(S(=O)(=O)c2ccccc2)ccc1C(F)(F)F)c1ccccc1` [Example 770, N-[2-({[5-(Phenylsulfonyl)-2-(trifluoromethyl)phenyl]sulfonyl}amino)ethyl]benzamide] displayed an IC50 of 2700 nM. Besides, the fold induction at 10 µM on SFRP-1 [2] was found to be 1.7.
`O=S(=O)(NCCc1ccncc1)c1cc(S(=O)(=O)c2ccccc2)ccc1C(F)(F)F` [Example 771, 5-(phenylsulfonyl)-N-(2-pyridin-4-ylethyl)-2-(trifluoromethyl)benzenesulfonamide] had an IC50 on SFRP-1 [1] of 80 nM. Besides, on SFRP-1 [2], the half-maximal effective concentration (EC50) was found to be 733 nM and the fold induction at 10 µM turned out to be 3.5.
Regarding `O=S(=O)(NC1Cc2ccccc2C1)c1cc(S(=O)(=O)c2ccccc2)ccc1C(F)(F)F` [Example 772, N-(2,3-dihydro-1H-inden-2-yl)-5-(phenylsulfonyl)-2-(trifluoromethyl)benzenesulfonamide], on SFRP-1 [1], the 50% inhibitory concentration (IC50) is 80 nM. Moreover, on SFRP-1 [2], the fold induction at 10 µM was determined as 1.2.
Take `O=S(=O)(NC[C@H](O)c1ccccc1)c1cc(S(=O)(=O)c2ccccc2)ccc1C(F)(F)F` [Example 773, N-[(2R)-2-hydroxy-2-phenylethyl]-5-(phenylsulfonyl)-2-(trifluoromethyl)benzenesulfonamide]: the 50% inhibitory concentration (IC50) on SFRP-1 [1] came out at 1900 nM. In addition, on SFRP-1 [2], the EC50 was 1300 nM and the fold induction at 10 µM came out at 1.2.
Turning to `O=S(=O)(NC[C@@H](O)c1ccccc1)c1cc(S(=O)(=O)c2ccccc2)ccc1C(F)(F)F` [Example 774, N-[(2S)-2-hydroxy-2-phenylethyl]-5-(phenylsulfonyl)-2-(trifluoromethyl)benzenesulfonamide], at SFRP-1 [1], the IC50 came to 60 nM. Besides, at SFRP-1 [2], the concentration giving a half-maximal response (EC50) was 973 nM and the fold induction at 10 µM was determined as 1.3.
`O=C(NCCNS(=O)(=O)c1cc(S(=O)(=O)c2ccccc2)ccc1C(F)(F)F)c1ccncc1` [Example 783, N-[2-({[5-(Phenylsulfonyl)-2-(trifluoromethyl)phenyl]sulfonyl}amino)ethyl]isonicotinamide]: the 50% inhibitory concentration (IC50) on SFRP-1 [1] is 700 nM. In addition, the fold induction at 10 µM at SFRP-1 [2] was 3.2.
Compound `CC[C@H](CO)NS(=O)(=O)c1cc(S(=O)(=O)c2ccccc2)ccc1C(F)(F)F` [Example 784, N-[(1R)-1-(hydroxymethyl)propyl]-5-(phenylsulfonyl)-2-(trifluoromethyl)benzenesulfonamide] gave a concentration for half-maximal inhibition (IC50) on SFRP-1 [1] of 3000 nM. Also, at SFRP-1 [2], the fold induction at 10 µM turned out to be 3.
In the case of `COc1cccc(S(=O)(=O)c2ccc(C(F)(F)F)c(S(=O)(=O)NCCO)c2)c1` [Example 785, N-(2-hydroxyethyl)-5-[(3-methoxyphenyl)sulfonyl]-2-(trifluoromethyl)benzenesulfonamide], at SFRP-1 [1], the IC50 turned out to be 1100 nM. Besides, the fold induction at 10 µM at SFRP-1 [2] is 2.9.
With `CC(C)(C)OC(=O)N1CCC[C@H](NS(=O)(=O)c2cc(S(=O)(=O)c3ccccc3)ccc2C(F)(F)F)C1` [Example 786, tert-butyl(3S)-3-({[5-(phenylsulfonyl)-2-(trifluoromethyl)phenyl]sulfonyl}amino)piperidine-1-carboxylate], the half-inhibitory concentration (IC50) on SFRP-1 [1] was found to be 4400 nM. Moreover, at SFRP-1 [2], the fold induction at 10 µM worked out at 1.7.
On to `CC(C)(C)OC(=O)N1CCC[C@@H](NS(=O)(=O)c2cc(S(=O)(=O)c3ccccc3)ccc2C(F)(F)F)C1` [Example 787, tert-butyl(3R)-3-({[5-(phenylsulfonyl)-2-(trifluoromethyl)phenyl]sulfonyl}amino)piperidine-1-carboxylate], for which, on SFRP-1 [1], the IC50 turned out to be 300 nM. Further, at SFRP-1 [2], the EC50 was found to be 896 nM and the fold induction at 10 µM was found to be 3.7.
On to `O=S(=O)(N[C@H]1CCCNC1)c1cc(S(=O)(=O)c2ccccc2)ccc1C(F)(F)F` [Example 790, 5-(phenylsulfonyl)-N-[(3S)-piperidin-3-yl]-2-(trifluoromethyl)benzenesulfonamide], for which the 50% inhibitory concentration (IC50) on SFRP-1 [1] was 2000 nM. Moreover, at SFRP-1 [2], the fold induction at 10 µM was 3.1.
The matching figures for `O=S(=O)(N[C@@H]1CCCNC1)c1cc(S(=O)(=O)c2ccccc2)ccc1C(F)(F)F` [Example 791, 5-(phenylsulfonyl)-N-[(3R)-piperidin-3-yl]-2-(trifluoromethyl)benzenesulfonamide]: 3000 nM and 3.8.
The compound `Cc1cc2cc(S(=O)(=O)c3ccc(C(F)(F)F)c(S(=O)(=O)NC4CCNCC4)c3)ccc2n1C` [Example 792, 5-[(1,2-dimethyl-1H-indol-5-yl)sulfonyl]-N-piperidin-4-yl-2-(trifluoromethyl)benzenesulfonamide] yielded a 50% inhibitory concentration (IC50) at SFRP-1 [1] of 200 nM. For the same compound, on SFRP-1 [2], the EC50 was found to be 2290 nM and the fold induction at 10 µM turned out to be 1.4.
The matching figures for `CN(CCNS(=O)(=O)c1cc(S(=O)(=O)c2ccccc2)ccc1C(F)(F)F)C(=O)OC(C)(C)C` [Example 793, tert-Butyl methyl[2-({[5-(phenylsulfonyl)-2-(trifluoromethyl)phenyl]sulfonyl}amino)ethyl]carbamate]: 600 nM, 1540 nM and 2.5.
Regarding `CC(C)(C)OC(=O)N1CC[C@H](NS(=O)(=O)c2cc(S(=O)(=O)c3ccccc3)ccc2C(F)(F)F)C1` [Example 794, tert-butyl(3S)-3-({[5-(phenylsulfonyl)-2-(trifluoromethyl)phenyl]sulfonyl}amino)pyrrolidine-1-carboxylate], the IC50 on SFRP-1 [1] is 100 nM. At SFRP-1 [2], the EC50 is 534 nM and the fold induction at 10 µM came to 3.3.
The matching figures for `CC(C)(C)OC(=O)N1CC[C@@H](NS(=O)(=O)c2cc(S(=O)(=O)c3ccccc3)ccc2C(F)(F)F)C1` [Example 795, tert-butyl(3R)-3-({[5-(phenylsulfonyl)-2-(trifluoromethyl)phenyl]sulfonyl}amino)pyrrolidine-1-carboxylate]: 80 nM, 140 nM and 3.8.
On SFRP-1 [1], `O=S(=O)(N[C@H]1CCNC1)c1cc(S(=O)(=O)c2ccccc2)ccc1C(F)(F)F` [Example 796, 5-(phenylsulfonyl)-N-[(3S)-pyrrolidin-3-yl]-2-(trifluoromethyl)benzenesulfonamide] displayed an IC50 of 600 nM. Also, on SFRP-1 [2], a half-maximal response (EC50) required 1350 nM and the fold induction at 10 µM amounted to 4.3.
`O=S(=O)(N[C@@H]1CCNC1)c1cc(S(=O)(=O)c2ccccc2)ccc1C(F)(F)F` [Example 797, 5-(phenylsulfonyl)-N-[(3R)-pyrrolidin-3-yl]-2-(trifluoromethyl)benzenesulfonamide]: the half-maximal inhibitory concentration (IC50) on SFRP-1 [1] was 800 nM. Moreover, the fold induction at 10 µM on SFRP-1 [2] worked out at 3.5.
Compound `Cc1ccc(S(=O)(=O)c2ccccc2)cc1S(=O)(=O)NC1CCSCC1` [Example 798, 2-methyl-5-(phenylsulfonyl)-N-(tetrahydro-2H-thiopyran-4-yl)benzenesulfonamide] yielded an IC50 on SFRP-1 [1] of 4000 nM. Also, the fold induction at 10 µM on SFRP-1 [2] was found to be 1.8.
Regarding `CNCCNS(=O)(=O)c1cc(S(=O)(=O)c2ccccc2)ccc1C(F)(F)F` [Example 799, N-[2-(Methylamino)ethyl]-5-(phenylsulfonyl)-2-(trifluoromethyl)benzenesulfonamide hydrochloride], the half-maximal inhibitory concentration (IC50) at SFRP-1 [1] is 8000 nM. In addition, the fold induction at 10 µM at SFRP-1 [2] came out at 2.2.

The record behind these values is patent US20060276464A1, “Diarylsulfone sulfonamides and use thereof” (Wyeth, priority 2005, published 2006).
